Legend:
Assay type in all cases: functional
Details in all cases: read-out: GI
Phomopsis asparagi = assay: Fungicidal activity against Phomopsis asparagi assessed as growth inhibition at 50 ppm relative to control
[1] = test system: Botryosphaeria berengeriana; assay: Fungicidal activity against Botryosphaeria berengeriana assessed as growth inhibition at 50 ppm relative to control
[2] = test system: Brassica rapa subsp. oleifera; assay: Herbicidal activity against Brassica rapa subsp. oleifera assessed as growth inhibition at 1.5 kg/ha applied to soil relative to control

Compound	inhibition of growth at 50 ppm (Phomopsis asparagi) [%]	inhibition of growth at 50 ppm [1] [%]	inhibition of growth at 1500 g/ha [2] [%]
CC(=O)OC[C@H]1O[C@@H](NC(=S)NNS(=O)(=O)c2ccc(C)cc2)[C@H](OC(C)=O)[C@@H](OC(C)=O)[C@@H]1OC(C)=O	30	30	–
CC(=O)O[C@@H]1[C@@H](OC(C)=O)[C@H](OC(C)=O)CO[C@H]1NC(=S)NNS(=O)(=O)c1ccccc1	30	30	–
CC(=O)OC[C@H]1O[C@@H](N2C(=O)CS/C2=N\NS(=O)(=O)c2ccc(C)cc2)[C@H](OC(C)=O)[C@@H](OC(C)=O)[C@@H]1OC(C)=O	30	30	39.8
